Laboratory results taken from paper PMC9010562, “Designing a Novel Functional Peptide With Dual Antimicrobial and Anti-inflammatory Activities via in Silico Methods” (Frontiers in Immunology, 2022).
Ends that are not written are not given here.

What was measured:
[1] = tested on: Bacillus cereus KCCM 21366; type: cell-based; conditions: two-fold broth microdilution in MHB, 2×10^5 CFU/mL, 37°C, 18 h (24 h in the source), OD 600 nm; triplicate
Text: (§1) Every strain used in the study was purchased from the Korean Culture Center of Microorganisms (KCCM, Seoul, Korea) or the American Type Culture Collection (ATCC, Manassas, VA, USA). The following bacterial strains were used in this study: Escherichia coli KCCM 11234 (E. coli), Pseudomonas aeruginosa ATCC 9027 (P. aeruginosa), Bacillus cereus KCCM 21366 (B. cereus), Staphylococcus aureus KCCM 11335 (S. aureus), and methicillin-resistant S. aureus ATCC 33591 (MRSA). Bacterial strains were maintained in tryptic soy broth (TSB, Difco Laboratories, Detroit, MI, USA) and cultured under shaking incubation at 37°C. In addition, the following human cell lines were used in this study: THP-1 monocytes (ATCC TIB-202), primary adipose-derived mesenchymal stem cell (hADMSC; CEFO Co., Seoul, Korea), normal bronchial epithelial cells BEAS-2B (ATCC CRL-9609), and lung carcinoma cells H460 (ATCC HTB-177). THP-1 and H460 cells were cultured in RPMI 1640 medium (Welgene Inc., Gyeongsan, Gyeongsangbuk-do, Korea) supplemented with 10% fetal bovine serum (Gibco), 1% penicillin and streptomycin (Gibco), and sodium pyruvate (Welgene Inc.). hADMSC and BEAS-2B cells were cultured in CEFOgro™ Human MSC Growth Medium (CEFO Co.) and BEGM™ Bronchial Epithelial Cell Growth Medium BulletKit™ (Lonza, Basel, Switzerland), respectively. The cells were maintained under humidified air with 5% CO2 at 37°C.
(§2) Two-fold broth microdilution assays were performed to measure the MIC values of the peptides. In brief, the strains were grown to an exponential phase in MHB at 37°C and then diluted to reach 2×10^5 CFU/mL in fresh media. Peptides were serially diluted in PBS and then added of 50 μL/well to a 96-well plate. An equal volume of bacterial suspensions was added to each well, resulting in final concentrations of peptides ranging from 1 to 32 μM. The wells only with the medium served as blank, while adding the medium to inoculant was used as control. The plates were incubated at 37°C for 18 h, and the bacterial growth was measured at 600 nm using a microplate reader (Molecular Devices, Sunnyvale, CA, USA). […] To perform colony forming assay, different concentrations of peptides were mixed with an equal volume of bacterial suspensions, resulting in 2×10^5 CFU/mL. The samples were spread onto tryptic soy agar (TSA, Difco Laboratories) plates after 3 h incubation and incubated overnight at 37°C. Relative colony formation was measured by counting colonies formed on agar plates, and was compared with the control plate for the relative expression.

[2] = tested on: Escherichia coli KCCM 11234; type: cell-based; conditions: two-fold broth microdilution in MHB, 2×10^5 CFU/mL, 37°C, 18 h (24 h in the source), OD 600 nm; triplicate
Text: as §1, §2

[3] = tested on: Pseudomonas aeruginosa ATCC 9027; type: cell-based; conditions: two-fold broth microdilution in MHB, 2×10^5 CFU/mL, 37°C, 18 h (24 h in the source), OD 600 nm; triplicate
Text: as §1, §2

[4] = tested on: Staphylococcus aureus KCCM 11335; type: cell-based; conditions: two-fold broth microdilution in MHB, 2×10^5 CFU/mL, 37°C, 18 h (24 h in the source), OD 600 nm; triplicate
Text: as §1, §2

[5] = tested on: methicillin-resistant S. aureus ATCC 33591 (MRSA); type: cell-based, Staphylococcus aureus; conditions: two-fold broth microdilution in MHB, 2×10^5 CFU/mL, 37°C, 18 h (24 h in the source), OD 600 nm; triplicate
Text: as §1, with “THP-1 and H460 cells were cultured in RPMI 1640 medium (Welgene Inc., Gyeongsan, Gyeongsangbuk-do, Korea) supplemented with 10% fetal bovine serum (Gibco), 1% penicillin and streptomycin (Gibco), and sodium pyruvate (Welgene Inc.). hADMSC and BEAS-2B cells were cultured in CEFOgro™ Human MSC Growth Medium (CEFO Co.) and BEGM™ Bronchial Epithelial Cell Growth Medium BulletKit™ (Lonza, Basel, Switzerland), respectively. The cells were maintained under humidified air with 5% CO2 at 37°C.” left out
Two-fold broth microdilution assays were performed to measure the MIC values of the peptides. […] The plates were incubated at 37°C for 18 h, and the bacterial growth was measured at 600 nm using a microplate reader (Molecular Devices, Sunnyvale, CA, USA). […] Relative colony formation was measured by counting colonies formed on agar plates, and was compared with the control plate for the relative expression.

[6] = tested on: BEAS-2B cells; assay: WST-8 cell viability assay; type: cell-based, human; conditions: WST-8, 24 h treatment
Text: as §1
(§3) THP-1, hADMSC, BEAS-2B, and H460 cells were seeded in 96-well plates at a density of 1×10^5 cells/mL to evaluate the cytotoxic effect of the peptides. Different concentrations of peptide were treated and incubated for 24 h. Quanti-Max WST-8 Cell Viability assay solution (Biomax, Seoul, Korea) was added to each well, and then the plate was incubated for 1 h. The absorbance was read at 450 nm using a microplate reader (Molecular Devices), and the relative cell viability was calculated.

[7] = tested on: H460 cells; assay: WST-8 cell viability assay; type: cell-based, human; conditions: WST-8, 24 h treatment
Text: as §1, §3

[8] = tested on: THP-1 cells; assay: WST-8 cell viability assay; type: cell-based, human; conditions: WST-8, 24 h treatment
Text: as §1, §3

[9] = tested on: hADMSC cells; assay: WST-8 cell viability assay; type: cell-based, human; conditions: WST-8, 24 h treatment
Text: as §1, §3

[10] = tested on: bovine red blood cells; assay: Hemolytic activity; type: cell-based; conditions: bovine RBCs 4% (v/v) in PBS, peptide up to 50 μM, 37°C 1 h, relative to 0.1% Triton X-100 (100%), absorbance 450 nm
Experimental: The hemolytic activity of the peptide was tested using bovine red blood cells (RBCs) purchased from Innovative Research (Novi, MI, USA). RBCs were diluted in PBS to obtain a 4% (v/v) suspension and were aliquoted at 100 μL per microtube. The RBC suspensions were mixed with an equal volume of 2-fold peptides and incubated at 37°C for 1 h. PBS and 0.1% Triton X-100 served as the negative control (0% hemolysis) and positive control (100% hemolysis), respectively. The tubes were centrifuged at 3,000 × g for 10 min at 4°C, and the supernatants were transferred to a 96-well microplate. The absorbance (Ab) was measured at 450 nm using a microplate reader (Molecular Devices). The hemolytic activity of each peptide was calculated by (Abpeptide – AbPBS)/(AbTriton X-100 – AbPBS) × 100.

[11] = Serum stability test (SDS-PAGE); type: in vitro ADME; conditions: 25 μg peptide in 20 μL with 10% human serum (also 2%, 5%), 37°C, 12 h (also 1, 4 h); SDS-PAGE 12% gel, Coomassie staining
Experimental: Peptide stability in human serum (HS, Sigma-Aldrich) was tested by sodium dodecyl sulfate-polyacrylamide gel electrophoresis (SDS-PAGE) ([25]). 25 μg of peptides were incubated with 2%, 5%, and 10% of HS in a total volume of 20μL. The samples, peptide control, HS controls were incubated at 37°C for 1, 4, 12 h and were mixed with 5 × protein sample buffer. The samples were loaded in 12% SDS gel along with Prosi prestained protein marker (GenDEPOT, Katy, TX, USA). After separation, gels were stained with Coomassie Brilliant Blue R-250 staining solution (Bio-Rad, Hercules, CA, USA). Gels were destained and imaged by ChemiDoc™ Imaging Systems (Bio-Rad).

With NKGLAKLLKIGLKALESVIQ [Ak-N’m] as the sequence, how does the “MIC B. cereus” value [1] read?
Its value is 32 µM.

What about the “MIC E. coli” value [2] of the same sequence?
Its value is 2 µM.

What about the “MIC P. aeruginosa” value [3] of the same sequence?
Its value is 8 µM.

What about the “MIC S. aureus” value [4] of the same sequence?
The value was 8 µM.

And the “MIC MRSA” value [5]?
Its value is 32 µM.

What about the “Concentration up to which cell viability was not affected, BEAS-2B” value [6] of the same sequence?
Its value is 2000 nM.

What about the “Concentration up to which cell viability was not affected, H460” value [7] of the same sequence?
The value was 2000 nM.

And the “Concentration up to which cell viability was not affected, THP-1” value [8]?
Its value is 10000 nM.

And the “Concentration up to which cell viability was not affected, hADMSC” value [9]?
Its value is 2000 nM.

What about the Hemolysis [10] of the same sequence?
Its Hemolysis is “below 5%”.

What about the “Stability in human serum” value [11] of the same sequence?
The value was “exhibited stability”.

For FKGLAKLLKIGLKALAKVIQ [Ak-N’], which “MIC B. cereus” value [1] is on record?
The value was 4 µM.

What about the “MIC E. coli” value [2] of the same sequence?
Its value is 2 µM.

And the “MIC P. aeruginosa” value [3]?
The value was 2 µM.

What about the “MIC S. aureus” value [4] of the same sequence?
The value was 0.2 µM.

What about the “MIC MRSA” value [5] of the same sequence?
Its value is 2 µM.

What about the “Concentration from which a significant cytotoxic effect was seen, BEAS-2B (normal cell line)” value [6] of the same sequence?
Its value is 2000 nM.

And the “Concentration from which cell viability was significantly affected, H460” value [7]?
The value was 500 nM.

What about the “Concentration from which a significant cytotoxic effect was seen, THP-1” value [8] of the same sequence?
Its value is 5000 nM.

What about the “Concentration from which a significant cytotoxic effect was seen, hADMSC (primary cell line)” value [9] of the same sequence?
The value was 2000 nM.

What about the Hemolysis [10] of the same sequence?
The Hemolysis was “over 50%”.

What about the “Stability in human serum” value [11] of the same sequence?
Its value is “exhibited stability”.
